# Laboratory results as given in patent US7348317B2, “Aqueous compositions containing metronidazole” (Dow Pharmaceutical Sciences, priority 2001, dated 2008).
# Assays:
# Assay type in all cases: physicochemical
# [1] = Physical stability of 1.0% metronidazole gel solutions with BCD and niacinamide at 5° C.
# [2] = Physical stability of BCD solutions in gel vehicle stored at 5° C.; settings: for Results after storage at 5° C.: monitored weekly for two weeks
# Experimental: Different solutions according to Table 1 were made with varying concentrations of beta-cyclodextrin (BCD). The solutions of BCD were maintained at 5° C. monitored weekly for two weeks for signs of crystal or precipitate formation.
# [3] = Physical stability of 1% metronidazole solutions with 0.5% niacin and varying BCD at 5° C.; settings: for Results, 5° C., 1 week: MTZ 1.0 % w/w, niacin 0.5 % w/w, pH 5.0+/−0.15
# Experimental: The solutions were maintained at 5° C. for one week to observe for crystal or precipitate formation.
# [4] = Physical stability of 1.0% metronidazole gel solutions with BCD and niacinamide at 5° C.; settings: Metronidazole 1.0 % w/w
# Experimental: Various gel solutions of Table 1 were prepared with a concentration of 1.0% metronidazole and containing either 0.5% or 1.0% BCD and differing concentrations of niacinamide. The gels were maintained at 5° C. for one week to observe for precipitate or crystal formation.
# [5] = Physical stability / stable solubility of metronidazole in gel vehicle containing 0.5% BCD at 5° C.; settings: for Result at 5° C., 1 week: BCD 0.5 % w/w, gel vehicle
# Experimental: Different concentrations of metronidazole were prepared with the gel vehicle of Example 1 containing 0.5% BCD. The metronidazole (MTZ)/BCD solutions were maintained at 5° C. for one week.
# [6] = Physical stability of 1.0% metronidazole gel solutions with niacin at 5° C.; settings: MTZ 1.0 % w/w, pH 5.0+/−0.15, gel
# Experimental: The pH was adjusted to 5.0+/−0.15 with trolamine. The solutions were maintained at 5° C. for one week to observe evidence of precipitation or crystal formation.
# [7] = BCD at its maximum soluble aqueous concentration (0.5%), 5° C.
structure (smiles),measurement,setting,value
NC(=O)c1cccnc1 [niacinamide],concentration of niacinamide required to obtain a stable aqueous gel solution of 1.0% metronidazole,"[1]; niacinamide alone, no BCD",about 3%
"OC[C@H]1O[C@@H]2O[C@H]3[C@H](O)[C@@H](O)[C@@H](O[C@H]4[C@H](O)[C@@H](O)[C@@H](O[C@H]5[C@H](O)[C@@H](O)[C@@H](O[C@H]6[C@H](O)[C@@H](O)[C@@H](O[C@H]7[C@H](O)[C@@H](O)[C@@H](O[C@H]8[C@H](O)[C@@H](O)[C@@H](O[C@H]1[C@H](O)[C@H]2O)O[C@@H]8CO)O[C@@H]7CO)O[C@@H]6CO)O[C@@H]5CO)O[C@@H]4CO)O[C@@H]3CO [BCD, beta-cyclodextrin]",saturated BCD solubility in the aqueous solutions,"[2]; 5° C., aqueous solution such as gel",about 0.5%
same,Results after storage at 5° C.,[2]; BCD 0.5 % w/w in gel vehicle of Table 1,Clear after 2 weeks
same,Results after storage at 5° C.,[2]; BCD 0.6 % w/w in gel vehicle of Table 1,Crystals formed after 2 weeks
same,Results after storage at 5° C.,[2]; BCD 0.7 % w/w in gel vehicle of Table 1,Crystals at one week
same,Results after storage at 5° C.,[2]; BCD 0.9 % w/w in gel vehicle of Table 1,Crystals at one week
same,Results after storage at 5° C.,[2]; BCD 1.0 % w/w in gel vehicle of Table 1,Crystals at one week
same,Results after storage at 5° C.,[2]; BCD 1.2 % w/w in gel vehicle of Table 1,Crystals at one week
same,Results after storage at 5° C.,[2]; BCD 1.4 % w/w in gel vehicle of Table 1,Crystals at one week
same,Results after storage at 5° C.,[2]; BCD 1.5 % w/w in gel vehicle of Table 1,Crystals at one week
"Cc1ncc([N+](=O)[O-])n1CCO [MTZ, 1-(2-hydroxyethyl)-2-methyl-5-nitroimidazole]",solubility of MTZ with niacin and BCD combined,"[3]; 0.5% niacin combined with 0.5% BCD, pH of about 5",1%
same,"Results, 5° C., 1 week",[3]; BCD 0.2 % w/w,Crystals formed
same,"Results, 5° C., 1 week",[3]; BCD 0.3 % w/w,Crystals formed
same,"Results, 5° C., 1 week",[3]; BCD 0.5 % w/w,Clear
same,MTZ aqueous solubility with niacinamide,[1],1%
same,increase of MTZ aqueous solubility by niacinamide,[1]; 3% concentration of niacinamide,0.3%
same,solubility of MTZ above its unaided solubility with BCD and niacinamide combined,[1]; BCD at amount expected to yield 0.1% increase plus niacinamide at one third of the amount that raises solubility by 0.3%,0.3%
same,"Results at 5° C., 1 week","[4]; BCD 0.5 % w/w, niacinamide 0.5 % w/w",Crystals formed
same,"Results at 5° C., 1 week","[4]; BCD 0.5 % w/w, niacinamide 1.0 % w/w",Clear
same,"Results at 5° C., 1 week","[4]; BCD 0.5 % w/w, niacinamide 2.0 % w/w",Clear
same,"Results at 5° C., 1 week","[4]; BCD 1.0 % w/w, niacinamide 0.5 % w/w",Precipitate formed
same,"Results at 5° C., 1 week","[4]; BCD 1.0 % w/w, niacinamide 1.0 % w/w",Clear
same,"Results at 5° C., 1 week","[4]; BCD 1.0 % w/w, niacinamide 2.0 % w/w",Clear
same,increase of stable solubility of MTZ by BCD,[5]; [7],0.1%
same,stable solubility of MTZ in aqueous solution with BCD,[5]; [7],0.8%
same,"Result at 5° C., 1 week",[5]; MTZ 0.7 % w/w,Clear
same,"Result at 5° C., 1 week",[5]; MTZ 0.8 % w/w,Clear
same,"Result at 5° C., 1 week",[5]; MTZ 0.9 % w/w,Crystals formed
same,"stable solubility of MTZ in aqueous solution, unaided","[5]; aqueous solution such as a gel, 5° C., without solubility enhancer",0.7%
same,stable solubility of metronidazole in the gel vehicle,"[5]; gel vehicle containing 0.5% BCD, 5° C.",about 0.8 % w/w
same,"Results, 5° C., 1 week",[6]; niacin 0.10 % w/w,Crystals formed
same,"Results, 5° C., 1 week",[6]; niacin 0.15 % w/w,Crystals formed
same,"Results, 5° C., 1 week",[6]; niacin 0.25 % w/w,Crystals formed
same,"Results, 5° C., 1 week","[6]; niacin 0.5 % w/w, seven out of eight samples showed crystal formation",Clear/Crystals formed*
same,"Results, 5° C., 1 week",[6]; niacin 1.0 % w/w,Clear
same,"Results, 5° C., 1 week",[6]; niacin 1.2 % w/w,Clear
same,"Results, 5° C., 1 week",[6]; niacin 1.5 % w/w,Clear
same,"Results, 5° C., 1 week",[6]; niacin 1.8 % w/w,Clear
same,"Results, 5° C., 1 week",[6]; niacin 2.0 % w/w,Clear
same,"Results, 5° C., 1 week",[6]; niacin […] w/w,Clear
